SMILES strings stand for the structures.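 Five concentrations, 48 hours, 96-well plates. At the GI50, growth is halved. The concentration for full growth arrest is given as TGI.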 Some results are limits rather than exact numbers.

Test systems include OVCAR-8 ovarian; HCT-116 colon; MOLT-4 leukemia; SF-295 CNS; SW-620 colon; EKVX NSCLC; SK-MEL-2 melanoma; CCRF-CEM leukemia; MALME-3M melanoma; NCI-H23 lung.
Common to all, as to test: NCI tumour cell line growth inhibition, 48 h

In the case of `COc1ccc([C@H]2C=C(c3cc(F)c(Cl)cc3Cl)NC(=S)N2)cc1`, the TGI in the experiment with OVCAR-8 ovarian is over 100 µM; in the experiment on HCT-116 colon it was 84.9 µM; with MOLT-4 leukemia, over 100 µM; in the experiment on SF-295 CNS, over 100 µM; in the experiment with SW-620 colon it was over 100 µM; in the experiment on EKVX NSCLC, over 100 µM. The TGI is 58.4 µM in the experiment on SK-MEL-2 melanoma, over 100 µM in the experiment on CCRF-CEM leukemia, over 100 µM in the experiment with MALME-3M melanoma and over 100 µM in the experiment with NCI-H23 lung.
On to `NC(=O)Nc1cc(O)ccc1N=Nc1ccc(S(=O)(=O)Nc2ccccn2)cc1`, for which the TGI in the experiment with OVCAR-8 ovarian, in the experiment with HCT-116 colon, with MOLT-4 leukemia, in the experiment with SF-295 CNS, in the experiment on SW-620 colon and with EKVX NSCLC was over 100 µM throughout. The TGI in the experiment with SK-MEL-2 melanoma, with CCRF-CEM leukemia, with MALME-3M melanoma and in the experiment with NCI-H23 lung was over 100 µM in each case.
Regarding `Cc1cc(N(CCCCl)CCCCl)ccc1C=Nc1cccc(Cl)c1`, the TGI in the experiment on OVCAR-8 ovarian was 24.3 µM; in the experiment on HCT-116 colon, over 100 µM; with MOLT-4 leukemia, 21.2 µM; in the experiment with SF-295 CNS it was 43.5 µM; with SW-620 colon it was 25.4 µM; in the experiment with SK-MEL-2 melanoma it was 36.5 µM. Moreover, the results for the TGI in the experiment with MALME-3M melanoma and in the experiment with NCI-H23 lung were 22.8 µM and 27.7 µM, respectively.
As for `O=c1cc(O)c2ccccc2o1`, the TGI in the experiment with OVCAR-8 ovarian, in the experiment with HCT-116 colon, with MOLT-4 leukemia, in the experiment on SF-295 CNS, with SW-620 colon and with EKVX NSCLC was over 100 µM in each case. The TGI in the experiment on CCRF-CEM leukemia, in the experiment on MALME-3M melanoma and in the experiment on NCI-H23 lung was over 100 µM each time.
`CCCCCCCCCCCCCCCCOCC(COP(=O)([O-])OCC[n+]1ccc(N(C)C)cc1)OCC` (stereo unspecified): the TGI in the experiment with OVCAR-8 ovarian is 38.2 µM; in the experiment on HCT-116 colon it was 24.5 µM; in the experiment on MOLT-4 leukemia, 18.4 µM; with SF-295 CNS, 30.2 µM; in the experiment on SW-620 colon it was 37.2 µM; with SK-MEL-2 melanoma, 27 µM. The results for the TGI with CCRF-CEM leukemia, in the experiment on MALME-3M melanoma and in the experiment on NCI-H23 lung were 24.9 µM, 33 µM and 35.9 µM, respectively.
Consider `CC[C@H](C)C1=C(O)[N@+]2([O-])Oc3ccc(-c4c(O)c(O)c(-c5ccc(OC(C)=O)cc5)c(OC(C)=O)c4OC(C)=O)cc3O[C@]2([C@@H](C)CC)C(=O)N1O`, for which the TGI in the experiment with OVCAR-8 ovarian was over 50 µM; with HCT-116 colon it was 17.8 µM; with MOLT-4 leukemia it was 35 µM; in the experiment with SF-295 CNS it was over 50 µM; with SW-620 colon, 23.6 µM; in the experiment with EKVX NSCLC, over 50 µM. The TGI with SK-MEL-2 melanoma is over 50 µM; in the experiment on CCRF-CEM leukemia, 23.8 µM; with MALME-3M melanoma, over 50 µM; with NCI-H23 lung it was over 50 µM.
On to `Nc1ccc(Nc2c3ccccc3nc3ccccc23)cc1`, for which the TGI is over 10 µM in the experiment on OVCAR-8 ovarian; 9.52 µM in the experiment with HCT-116 colon; over 10 µM in the experiment with MOLT-4 leukemia; over 10 µM with SF-295 CNS; over 10 µM with SW-620 colon; over 10 µM in the experiment on EKVX NSCLC. For the same compound, the TGI in the experiment on SK-MEL-2 melanoma was over 10 µM; with CCRF-CEM leukemia it was 6.19 µM; with MALME-3M melanoma it was 8.96 µM; in the experiment with NCI-H23 lung, over 10 µM.
Take `COc1cc(C)c2c(=O)c3c(oc2c1)C(=O)c1c(O)c(OC)cc(O)c1C3=O`: the TGI in the experiment with OVCAR-8 ovarian is 0.551 µM; in the experiment on HCT-116 colon, 3.42 µM; with MOLT-4 leukemia it was 4.6 µM; in the experiment on SF-295 CNS, 3.23 µM; with SW-620 colon it was 10.7 µM; in the experiment on EKVX NSCLC it was 3.25 µM. The TGI was found to be 1.88 µM with SK-MEL-2 melanoma, 5.12 µM in the experiment on CCRF-CEM leukemia, 3.83 µM with MALME-3M melanoma and 3.38 µM in the experiment on NCI-H23 lung.
Regarding `COc1ccc(OC)c(C#Cc2ccc(OC)c(C(=O)NCCc3ccc(F)cc3)c2)c1`, the TGI in the experiment with OVCAR-8 ovarian, with HCT-116 colon, in the experiment on MOLT-4 leukemia, in the experiment on SF-295 CNS, with SW-620 colon and in the experiment with EKVX NSCLC was over 100 µM throughout. The TGI in the experiment on SK-MEL-2 melanoma, with CCRF-CEM leukemia and with NCI-H23 lung was over 100 µM each time. Besides, the GI50 is 4.7 µM in the experiment on HCT-116 colon and 4.72 µM with CCRF-CEM leukemia.
For `O=C1c2ccccc2C(=O)c2c1ccc(C(=O)O)c2-c1ccc2ccccc2c1`, the TGI is over 100 µM in the experiment on OVCAR-8 ovarian; 47.7 µM in the experiment with HCT-116 colon; 53 µM in the experiment with MOLT-4 leukemia; 81 µM in the experiment on SF-295 CNS; 89.5 µM in the experiment on SW-620 colon; 81 µM with EKVX NSCLC. Moreover, the TGI with SK-MEL-2 melanoma is 48.5 µM; in the experiment with CCRF-CEM leukemia, 52.4 µM; in the experiment with MALME-3M melanoma, 70.7 µM; in the experiment on NCI-H23 lung it was 46.5 µM.
Turning to `COc1c(Cl)cc(S(=O)O)cc1Cl`, the TGI in the experiment with HCT-116 colon, in the experiment with MOLT-4 leukemia, in the experiment with EKVX NSCLC, in the experiment on SK-MEL-2 melanoma, in the experiment on CCRF-CEM leukemia and with MALME-3M melanoma was over 100 µM throughout. Besides, the TGI in the experiment on NCI-H23 lung was over 100 µM.
On to `CC1(O)CC23CC1CCC2(C)C12CCCC(C)(C(=O)O1)C2CC3O` (stereo unspecified), for which the TGI in the experiment with OVCAR-8 ovarian, in the experiment with HCT-116 colon, in the experiment with SF-295 CNS, in the experiment on SW-620 colon, in the experiment on EKVX NSCLC and in the experiment with SK-MEL-2 melanoma was over 100 µM in each case. The TGI with CCRF-CEM leukemia, with MALME-3M melanoma and with NCI-H23 lung was over 100 µM each time.
Consider `O=C(Nc1nnc(-c2c(Cl)c(Cl)c(Cl)c(Cl)c2-c2nc3cc(C(=O)c4ccccc4)ccc3[nH]2)o1)c1ccccc1`, for which the TGI in the experiment with OVCAR-8 ovarian is over 100 µM; in the experiment with HCT-116 colon it was 87.3 µM; with MOLT-4 leukemia, 72.5 µM; in the experiment on SF-295 CNS it was 24.3 µM; with SW-620 colon it was over 100 µM; with EKVX NSCLC, 38.7 µM. Moreover, the TGI in the experiment on SK-MEL-2 melanoma turned out to be 51.4 µM; in the experiment on CCRF-CEM leukemia it was 20.8 µM; in the experiment on NCI-H23 lung it was 54.2 µM.
Regarding `Cc1c2cccc-2ccc2c1[nH]c1ccc(Br)cc12`, the TGI in the experiment on OVCAR-8 ovarian came out at 22.4 µM; with HCT-116 colon, 17.2 µM; in the experiment on SF-295 CNS, 15.7 µM; with SW-620 colon it was 25.2 µM; in the experiment on EKVX NSCLC, 6.11 µM; in the experiment on SK-MEL-2 melanoma it was 17.9 µM. For the same compound, the TGI amounted to 90.9 µM in the experiment with CCRF-CEM leukemia, 21.5 µM in the experiment on MALME-3M melanoma and 22.4 µM with NCI-H23 lung.

Values taken from PubChem BioAssay (NCI).
